Assay results taken from publication PMC10994248 (The Oncologist, 2024).

Assay: Phase I safety and tolerability (TEAEs, DLTs, MTD, DRDE) in patients with advanced solid tumors
Assay type: in vivo, human
Conditions: for DLT: Hypertension / DLT: Palmar-plantar erythrodysesthesia syndrome / DLT: Skin and subcutaneous tissue disorders / DLT: Vascular disorders / Subjects who had a dose-limiting toxicity: dose-determining set
Description: This 2-part, open-label, phase I study was conducted at the MD Anderson Cancer Center in Texas, USA and the Cancer Hospital Chinese Academy of Medical Sciences in Beijing, China. […] This was followed by a dose-expansion phase, the primary objective of which was to confirm the safety and tolerability of tinengotinib at the DRDE. Secondary objectives were to characterize the pharmacokinetics and preliminary efficacy of tinengotinib.
Dose escalation was guided by an adaptive Bayesian logistic regression model using the Escalation with Overdose Control principle.[6],[7] Study data (including DLTs, grade 2 adverse events during cycle 1, and pharmacokinetic data) were reviewed by the sponsor and trial investigators at each dose level and used to guide dose-escalation decisions. MTD was based on the Bayesian model, but with consideration given to available safety and tolerability data. DRDE was based on an evaluation of all available data (safety, clinical activity, and pharmacokinetics).
After determination of the DRDE, the dose-expansion phase was opened to further characterize safety and pharmacokinetics, and to assess preliminary efficacy.
Routine safety assessments of adverse events, laboratory tests (hematology, coagulation, biochemistry, and urinalysis), vital signs, and 12-lead electrocardiograms were performed. Adverse events were graded according to the National Cancer Institute Common Terminology Criteria for Adverse Events (CTCAE), version 5.0.

## tinengotinib
1 mg (n=1)
  DLT: Hypertension: 0 No. (%)
  DLT: Palmar-plantar erythrodysesthesia syndrome: 0 No. (%)
  DLT: Skin and subcutaneous tissue disorders: 0 No. (%)
  DLT: Vascular disorders: 0 No. (%)
  Subjects who had a dose-limiting toxicity: 0 No. (%)
3 mg (n=1)
  DLT: Hypertension: 0 No. (%)
  DLT: Palmar-plantar erythrodysesthesia syndrome: 0 No. (%)
  DLT: Skin and subcutaneous tissue disorders: 0 No. (%)
  DLT: Vascular disorders: 0 No. (%)
  Subjects who had a dose-limiting toxicity: 0 No. (%)
5 mg (n=4)
  DLT: Hypertension: 0 No. (%)
  DLT: Palmar-plantar erythrodysesthesia syndrome: 0 No. (%)
  DLT: Skin and subcutaneous tissue disorders: 0 No. (%)
  DLT: Vascular disorders: 0 No. (%)
  Subjects who had a dose-limiting toxicity: 0 No. (%)
8 mg (n=9)
  DLT: Hypertension: 0 No. (%)
  DLT: Palmar-plantar erythrodysesthesia syndrome: 1 (11.1) No. (%)
  DLT: Skin and subcutaneous tissue disorders: 1 (11.1) No. (%)
  DLT: Vascular disorders: 0 No. (%)
  Subjects who had a dose-limiting toxicity: 1 (11.1) No. (%)
10 mg (n=3)
  DLT: Hypertension: 0 No. (%)
  DLT: Palmar-plantar erythrodysesthesia syndrome: 0 No. (%)
  DLT: Skin and subcutaneous tissue disorders: 0 No. (%)
  DLT: Vascular disorders: 0 No. (%)
  Subjects who had a dose-limiting toxicity: 0 No. (%)
12 mg (n=9)
  DLT: Hypertension: 0 No. (%)
  DLT: Palmar-plantar erythrodysesthesia syndrome: 0 No. (%)
  DLT: Skin and subcutaneous tissue disorders: 0 No. (%)
  DLT: Vascular disorders: 0 No. (%)
  Subjects who had a dose-limiting toxicity: 0 No. (%)
12 mg dose
  DLTs during the dose-expansion phase: no other DLTs
15 mg (n=5)
  DLT: Hypertension: 2 (40.0) No. (%)
  DLT: Palmar-plantar erythrodysesthesia syndrome: 0 No. (%)
  DLT: Skin and subcutaneous tissue disorders: 0 No. (%)
  DLT: Vascular disorders: 2 (40.0) No. (%)
  Subjects who had a dose-limiting toxicity: 2 (40.0) No. (%)
48 patients
  Dose modifications (dose adjustment or temporary interruption) because of drug-related TEAEs: 52.1%
  Dose modifications because of drug-related hypertension: 22.9%
  Drug-related grade 3 diarrhea: 2.1%
  Drug-related grade 3 hypertension: 27.1%
  Drug-related grade 3 nausea: 2.1%
  Drug-related grade 3 palmar-plantar erythrodysesthesia syndrome: 2.1%
  Drug-related grade 3 stomatitis: 4.2%
  Drug-related grade 4 or 5 TEAEs: No drug-related grade 4 or 5 TEAEs were reported
  Patients with drug-related grade 3 TEAEs: 43.8%
  Patients with drug-related serious adverse events: 14.6%
48 patients, all doses
  Patients with study drug-related TEAEs: 85.4%
48 patients, any grade
  Drug-related TEAE diarrhea: 33.3%
  Drug-related TEAE hypertension: 50.0%
  Drug-related TEAE nausea: 22.9%
  Drug-related TEAE palmar-plantar erythrodysesthesia syndrome: 29.2%
  Drug-related TEAE stomatitis: 29.2%
  Drug-related TEAE vomiting: 20.8%
Bayesian model, doses 1-15 mg once daily
  Maximum tolerated dose (MTD): not reached
Total (n=32)
  DLT: Hypertension: 2 (6.3) No. (%)
  DLT: Palmar-plantar erythrodysesthesia syndrome: 1 (3.1) No. (%)
  DLT: Skin and subcutaneous tissue disorders: 1 (3.1) No. (%)
  DLT: Vascular disorders: 2 (6.3) No. (%)
  Subjects who had a dose-limiting toxicity: 3 (9.4) No. (%)
All doses
  Risk of grade ≥3 hypertension predicted by exposure-response model: < 25%
Combined 12 mg (n=20)
  Patients with AE: 20 (100) n (%)
  Patients with TEAE: 20 (100) n (%)
  Patients with TEAE leading to death: 0 n (%)
  Patients with TEAE leading to dose adjustment/temporary interruption: 15 (75.0) n (%)
  Patients with TEAE leading to study drug permanent discontinuation: 3 (15.0) n (%)
  Patients with grade ≥3 TEAE: 14 (70.0) n (%)
  Patients with study drug-related TEAE: 19 (95.0) n (%)
  Patients with study drug-related TEAE leading to dose adjustment/temporary interruption: 13 (65.0) n (%)
  Patients with study drug-related TEAE leading to study drug permanent discontinuation: 1 (5.0) n (%)
  Patients with study drug-related grade ≥3 TEAE: 11 (55.0) n (%)
  Patients with study drug-related treatment-emergent SAE: 3 (15.0) n (%)
  Patients with treatment-emergent SAE: 9 (45.0) n (%)
Dose escalation 1 mg (n=1)
  Patients with AE: 1 (100) n (%)
  Patients with TEAE: 1 (100) n (%)
  Patients with TEAE leading to death: 0 n (%)
  Patients with TEAE leading to dose adjustment/temporary interruption: 0 n (%)
  Patients with TEAE leading to study drug permanent discontinuation: 0 n (%)
  Patients with grade ≥3 TEAE: 0 n (%)
  Patients with study drug-related TEAE: 0 n (%)
  Patients with study drug-related TEAE leading to dose adjustment/temporary interruption: 0 n (%)
  Patients with study drug-related TEAE leading to study drug permanent discontinuation: 0 n (%)
  Patients with study drug-related grade ≥3 TEAE: 0 n (%)
  Patients with study drug-related treatment-emergent SAE: 0 n (%)
  Patients with treatment-emergent SAE: 0 n (%)
Dose escalation 3 mg (n=1)
  Patients with AE: 1 (100) n (%)
  Patients with TEAE: 1 (100) n (%)
  Patients with TEAE leading to death: 0 n (%)
  Patients with TEAE leading to dose adjustment/temporary interruption: 0 n (%)
  Patients with TEAE leading to study drug permanent discontinuation: 0 n (%)
  Patients with grade ≥3 TEAE: 0 n (%)
  Patients with study drug-related TEAE: 0 n (%)
  Patients with study drug-related TEAE leading to dose adjustment/temporary interruption: 0 n (%)
  Patients with study drug-related TEAE leading to study drug permanent discontinuation: 0 n (%)
  Patients with study drug-related grade ≥3 TEAE: 0 n (%)
  Patients with study drug-related treatment-emergent SAE: 0 n (%)
  Patients with treatment-emergent SAE: 0 n (%)
Dose escalation 5 mg (n=4)
  Patients with AE: 4 (100) n (%)
  Patients with TEAE: 4 (100) n (%)
  Patients with TEAE leading to death: 0 n (%)
  Patients with TEAE leading to dose adjustment/temporary interruption: 2 (50.0) n (%)
  Patients with TEAE leading to study drug permanent discontinuation: 0 n (%)
  Patients with grade ≥3 TEAE: 1 (25.0) n (%)
  Patients with study drug-related TEAE: 3 (75.0) n (%)
  Patients with study drug-related TEAE leading to dose adjustment/temporary interruption: 1 (25.0) n (%)
  Patients with study drug-related TEAE leading to study drug permanent discontinuation: 0 n (%)
  Patients with study drug-related grade ≥3 TEAE: 1 (25.0) n (%)
  Patients with study drug-related treatment-emergent SAE: 0 n (%)
  Patients with treatment-emergent SAE: 0 n (%)
Dose escalation 8 mg (n=10)
  Patients with AE: 9 (90.0) n (%)
  Patients with TEAE: 9 (90.0) n (%)
  Patients with TEAE leading to death: 0 n (%)
  Patients with TEAE leading to dose adjustment/temporary interruption: 5 (50.0) n (%)
  Patients with TEAE leading to study drug permanent discontinuation: 2 (20.0) n (%)
  Patients with grade ≥3 TEAE: 6 (60.0) n (%)
  Patients with study drug-related TEAE: 8 (80.0) n (%)
  Patients with study drug-related TEAE leading to dose adjustment/temporary interruption: 5 (50.0) n (%)
  Patients with study drug-related TEAE leading to study drug permanent discontinuation: 1 (10.0) n (%)
  Patients with study drug-related grade ≥3 TEAE: 4 (40.0) n (%)
  Patients with study drug-related treatment-emergent SAE: 3 (30.0) n (%)
  Patients with treatment-emergent SAE: 5 (50.0) n (%)
Dose escalation 10 mg (n=6)
  Patients with AE: 6 (100) n (%)
  Patients with TEAE: 6 (100) n (%)
  Patients with TEAE leading to death: 0 n (%)
  Patients with TEAE leading to dose adjustment/temporary interruption: 5 (83.3) n (%)
  Patients with TEAE leading to study drug permanent discontinuation: 4 (66.7) n (%)
  Patients with grade ≥3 TEAE: 5 (83.3) n (%)
  Patients with study drug-related TEAE: 6 (100) n (%)
  Patients with study drug-related TEAE leading to dose adjustment/temporary interruption: 3 (50.0) n (%)
  Patients with study drug-related TEAE leading to study drug permanent discontinuation: 4 (66.7) n (%)
  Patients with study drug-related grade ≥3 TEAE: 2 (33.3) n (%)
  Patients with study drug-related treatment-emergent SAE: 1 (16.7) n (%)
  Patients with treatment-emergent SAE: 4 (66.7) n (%)
Dose escalation 12 mg (n=12)
  Patients with AE: 12 (100) n (%)
  Patients with TEAE: 12 (100) n (%)
  Patients with TEAE leading to death: 0 n (%)
  Patients with TEAE leading to dose adjustment/temporary interruption: 8 (66.7) n (%)
  Patients with TEAE leading to study drug permanent discontinuation: 3 (25.0) n (%)
  Patients with grade ≥3 TEAE: 9 (75.0) n (%)
  Patients with study drug-related TEAE: 11 (91.7) n (%)
  Patients with study drug-related TEAE leading to dose adjustment/temporary interruption: 6 (50.0) n (%)
